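96-well plates; 48 h exposure; 5 concentrations. Endpoints by linear interpolation between flanking doses. Not reached: highest tested concentration assigned. Definition used: TGI = concentration required for complete inhibition of growth.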 Where a SMILES comes first, the peptide text is derived from it.

Among the data in PubChem BioAssay (NCI) are TGI values, retold here.

Among the test systems are NCI-H460 lung; MOLT-4 leukemia; SF-295 CNS; HCC-2998 colon; UACC-62 melanoma; SF-268 CNS; ACHN renal; SK-MEL-2 melanoma; NCI/ADR-RES ovarian; PC-3 prostate; K-562 leukemia; SNB-75 CNS; SW-620 colon; SN12C renal; U251 CNS; OVCAR-3 ovarian; COLO 205 colon; NCI-H23 lung; LOX IMVI melanoma; CCRF-CEM leukemia.
Common to all, as to assay: NCI tumour cell line growth inhibition, 48 h

For `COC(=O)c1ccc(COC(=O)N2C=CCC2C(=O)O)cc1` (stereo not given), the TGI in the test with NCI-H460 lung, with MOLT-4 leukemia, with SF-295 CNS, in the test on HCC-2998 colon, in the test on UACC-62 melanoma and with SF-268 CNS was over 100 µM in each case. Moreover, the TGI in the test on ACHN renal, in the test with SK-MEL-2 melanoma, in the test with NCI/ADR-RES ovarian, with PC-3 prostate, in the test with K-562 leukemia and in the test with SNB-75 CNS was over 100 µM in each case. Further, the TGI in the test on SW-620 colon, with SN12C renal, in the test with U251 CNS, in the test with OVCAR-3 ovarian, in the test with COLO 205 colon and with NCI-H23 lung was over 100 µM in each case.

With `C[C@]12CC[C@H]3[C@@H](CCC4=CC(=O)CC[C@@]43C)[C@@H]1CC[C@@H]2C(=O)Nc1ccc([N+](=O)[O-])c(C(F)(F)F)c1`, the TGI with NCI-H460 lung came out at 33.4 µM; in the test on MOLT-4 leukemia it was 70.8 µM; in the test on SF-295 CNS, 31.7 µM; in the test on HCC-2998 colon, 26.4 µM; with UACC-62 melanoma, 31.9 µM; in the test on SF-268 CNS, 36.5 µM. The TGI with ACHN renal worked out at 38.9 µM; in the test on SK-MEL-2 melanoma, 33.2 µM; in the test with NCI/ADR-RES ovarian it was 38.5 µM; in the test on PC-3 prostate it was 40 µM; with K-562 leukemia it was 73.7 µM; in the test with SW-620 colon, 37.6 µM. The TGI with SN12C renal came out at 41 µM; in the test on U251 CNS, 31.5 µM; with LOX IMVI melanoma it was 30.5 µM; with OVCAR-3 ovarian, 60 µM; in the test on COLO 205 colon, 36.7 µM; in the test on CCRF-CEM leukemia, 71.3 µM. The compound also registered a TGI in the test with NCI-H23 lung of over 10 µM.

As to `N#C/C(C(=S)Nc1ccccc1)=C(/N)N1CCCC1`, the TGI in the test on NCI-H460 lung, in the test on MOLT-4 leukemia, in the test on SF-295 CNS, in the test with HCC-2998 colon, in the test with UACC-62 melanoma and in the test with SF-268 CNS was over 100 µM in each case. The TGI in the test on ACHN renal, with SK-MEL-2 melanoma, with NCI/ADR-RES ovarian, in the test on PC-3 prostate, in the test on K-562 leukemia and in the test with SW-620 colon was over 100 µM throughout. The TGI in the test on SN12C renal, in the test on U251 CNS, in the test on LOX IMVI melanoma, with OVCAR-3 ovarian, with COLO 205 colon and in the test on CCRF-CEM leukemia was over 100 µM each time. The compound further had a TGI in the test on NCI-H23 lung of over 100 µM.

Consider `CNC(=O)C1CCCN1C(=O)C(Cc1cnc[nH]1)NC(=O)C1CCC(=O)N1` (stereo not given), for which the TGI in the test with NCI-H460 lung, in the test with MOLT-4 leukemia, with SF-295 CNS, in the test with HCC-2998 colon, in the test with UACC-62 melanoma and in the test with SF-268 CNS was over 100 µM throughout. Besides, the TGI with ACHN renal, in the test with NCI/ADR-RES ovarian, in the test on PC-3 prostate, in the test with K-562 leukemia, with SNB-75 CNS and in the test with SW-620 colon was over 100 µM each time. The TGI in the test with SN12C renal, in the test with U251 CNS, in the test with LOX IMVI melanoma, with OVCAR-3 ovarian, with COLO 205 colon and in the test on CCRF-CEM leukemia was over 100 µM throughout. The compound also yielded a TGI in the test with NCI-H23 lung of over 100 µM.

As for `CNC(=O)CNC(=O)C(NC(=O)CNC(=O)C1CCCN1C(=O)C(C)NC(=O)C(NC(C)=O)C(C)C)C(C)C` (stereo not given) (Ac-VAPGVG-NHMe; configuration not given here), the TGI in the test with NCI-H460 lung, with MOLT-4 leukemia, with SF-295 CNS, in the test with HCC-2998 colon, in the test on UACC-62 melanoma and with SF-268 CNS was over 100 µM each time. Further, the TGI in the test on ACHN renal, in the test on SK-MEL-2 melanoma, with NCI/ADR-RES ovarian, in the test with PC-3 prostate, in the test on K-562 leukemia and in the test on SW-620 colon was over 100 µM throughout. For the same compound, the TGI in the test with SN12C renal, in the test with U251 CNS, in the test with LOX IMVI melanoma, in the test with OVCAR-3 ovarian, with COLO 205 colon and in the test on CCRF-CEM leukemia was over 100 µM throughout. This compound also came in with a TGI in the test on NCI-H23 lung of over 100 µM.

Take `C/C=C1\CNC1C(=O)O` (stereo not given): the TGI with NCI-H460 lung, with SF-295 CNS, in the test on HCC-2998 colon, with UACC-62 melanoma, with SF-268 CNS and in the test on ACHN renal was over 100 µM in each case. Moreover, the TGI with SK-MEL-2 melanoma, in the test with NCI/ADR-RES ovarian, in the test with PC-3 prostate, in the test with K-562 leukemia, with SW-620 colon and with SN12C renal was over 100 µM in each case. The TGI in the test on LOX IMVI melanoma, in the test on OVCAR-3 ovarian, in the test on COLO 205 colon, with CCRF-CEM leukemia and in the test on NCI-H23 lung was over 100 µM each time.

Regarding `CS/C(=N\S(=O)(=O)c1cc(C)c(Cl)cc1Cl)NNc1cnc2ccccc2n1`, the TGI in the test on NCI-H460 lung, in the test on MOLT-4 leukemia, in the test on SF-295 CNS, in the test on HCC-2998 colon, in the test with UACC-62 melanoma and with SF-268 CNS was over 100 µM throughout. In addition, the TGI with ACHN renal, with NCI/ADR-RES ovarian, in the test on PC-3 prostate, in the test with K-562 leukemia, in the test with SNB-75 CNS and with SW-620 colon was over 100 µM in each case. The TGI in the test with SN12C renal, in the test with U251 CNS, with LOX IMVI melanoma, with OVCAR-3 ovarian, with COLO 205 colon and with CCRF-CEM leukemia was over 100 µM throughout. Also, the TGI in the test with NCI-H23 lung is over 100 µM.
